Test results: patent US20230331683A1, “INHIBITORS OF SPINSTER HOMOLOG 2 (SPNS2) FOR USE IN THERAPY” (University of Virginia Patent Foundation, priority 2020, published 2023)
Where a name gives a salt, the structure may show the parent alone.

Target: mouse SPNS2 (Mus musculus (Mouse), UniProt Q91VM4)
Test: S1P Transporter Assay (S1P release from whole cells expressing SPNS2)
Format: cell-based
Conditions: in vitro inhibition against SPNS2; HeLa cells expressing mouse SPNS2, S1P release into media after 18 hours; compounds as their pharmaceutical salts
Procedure: Transporter assays are vectorial and therefore require measurement of the transported analyte in different compartments. The S1P transporter SPNS2 only exports S1P, which obviates measuring uptake of S1P into transporter-expressing cells. Thus, transporter activity was determined by quantifying S1P release from whole cells expressing SPNS2. SPNS2 inhibitor potency was assessed using whole cell assays. HeLa cells expressing mouse SPNS2 were used to determine inhibitor potency (IC50). Cells were plated onto 12 well plates and assayed when the cell monolayers became confluent. Cell growth media (RPMI-1640 containing 10% fetal bovine serum) was replaced with 2 mL of serum-free media (RPMI-1640) containing fatty acid free bovine serum albumin (BSA) (0.2 % w/v) and supplemented with 4-deoxypyridoxine (DOP) (1 mM), NaF (2 mM), Na3VO4 (0.2 mM) to inhibit S1P degradation. Test articles (1 × 10-9 - 1 × 10^-4 M) were assayed in duplicate or triplicate. After 18 hours, media was collected, an internal recovery standard (0.005 mL of 5 × 10^-7 M deuterated (d7) S 1P in methanol) was added, the BSA was precipitated with trichloroacetic acid and the bound S1P extracted with methanol. S1P and S1P-d7 were measured by liquid chromatography mass spectrometry. Inhibitor potency at the human SPNS2 ortholog was determined by an analogous assay using U-937 cells, which endogenously express human SPNS2.

Chain of mouse SPNS2 (Q91VM4 whole entry): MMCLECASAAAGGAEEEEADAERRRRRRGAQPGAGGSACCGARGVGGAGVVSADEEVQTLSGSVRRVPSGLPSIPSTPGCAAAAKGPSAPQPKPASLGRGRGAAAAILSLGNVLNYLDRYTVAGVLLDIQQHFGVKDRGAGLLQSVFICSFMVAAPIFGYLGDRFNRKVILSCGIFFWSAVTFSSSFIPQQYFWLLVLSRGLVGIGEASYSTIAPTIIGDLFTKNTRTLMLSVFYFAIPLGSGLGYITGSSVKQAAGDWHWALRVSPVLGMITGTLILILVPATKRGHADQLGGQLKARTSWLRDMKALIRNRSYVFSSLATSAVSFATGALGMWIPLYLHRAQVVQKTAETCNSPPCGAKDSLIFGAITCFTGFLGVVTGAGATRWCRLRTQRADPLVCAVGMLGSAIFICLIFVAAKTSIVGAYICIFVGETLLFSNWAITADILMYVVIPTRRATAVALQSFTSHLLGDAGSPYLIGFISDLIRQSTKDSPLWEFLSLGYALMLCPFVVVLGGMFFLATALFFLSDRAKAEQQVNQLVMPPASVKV

How did the IC50 turn out when CCCCCCCCc1ccc2oc(NCCN)nc2c1 [Compound 13a, N^1-octylbenzo[d]oxazol-2-yl)ethane-1,2-diamine hydrochloride] was run?
The IC50 was over 2000 nM.

How did the IC50 turn out when CCCCCCCCCCc1ccc(NC(=O)C[C@@H]2CCNC2)cc1 [Compound 2i, (S)-N-decylphenyl)-2-(pyrrolidin-3-yl)acetamide Hydrochloride] was run?
The IC50 was at most 2000 nM.

How did the IC50 turn out when CCCCCCCCCCc1ccc(NC(=O)O[C@@H]2CCNC2)cc1 [Compound 23c, (R)-pyrrolidin-3-yl (4-decylphenyl)carbamate Hydrochloride] was run?
Its IC50 is at most 2000 nM.

For CCCCCCCCCCc1ccc2nc(N3CC[C@H](N)C3)oc2c1 [Compound 13z, (S)(6-decylbenzo[d]oxazol-2-yl)pyrrolidin-3-amine Hydrochloride], which IC50 is on record?
The IC50 was over 2000 nM.

For CCCCCCCCCCc1ccc(NC(=O)[C@@H]2CCCN(C(=N)N)C2)cc1 [Compound 4a, (R)carbamimidoyl-N-(4-decylphenyl)piperidine-3-carboxamide 2,2,2-trifluoroacetate], which IC50 is on record?
The IC50 was at most 2000 nM.

CCCCCCCCCCc1ccc(NC(=O)CCCN(C)C)cc1 [Compound 2p, 4-(dimethylamino)-N-(4-decylphenyl)butanamide Hydrochloride] was tested. Which IC50 did it give?
Its IC50 is over 2000 nM.

With CCCCCCCCCCc1ccc(NC(=O)[C@@H]2CCCNC2)cc1 [Compound 2a] as the molecule, how does the IC50 read?
The IC50 was over 2000 nM.

For CCCCCCCCCCc1ccc(C(=O)NCCCN)cc1 [Compound 26d, N-aminopropyl)-4-decylbenzamide Hydrochloride], which IC50 is on record?
Its IC50 is at most 2000 nM.

How did the IC50 turn out when CCCCCCCCCCCCc1ccc2oc(NCCN)nc2c1 [Compound 13e, N^1-dodecylbenzo[d]oxazol-2-yl)ethane-1,2-diamine hydrochloride] was run?
Its IC50 is over 2000 nM.

For CCCCCCCCCCc1ccc2nc(N3CC[C@@H](N)C3)oc2c1 [Compound 13aa, (R)(6-decylbenzo[d]oxazol-2-yl)pyrrolidin-3-amine Hydrochloride], which IC50 is on record?
The IC50 was over 2000 nM.

With CCCCCCCCCCc1ccc2oc(CCCN)nc2c1 [Compound 8b, 3-Decylbenzo[d]oxazol-2-yl)propan-1-amine Hydrochloride] as the molecule, how does the IC50 read?
Its IC50 is over 2000 nM.

For CCCCCCCCCCc1ccc2oc(N3CC[C@@H](N)C3)nc2c1 [Compound 13o, (R)(5-decylbenzo[d]oxazol-2-yl)pyrrolidin-3-amine Hydrochloride], which IC50 is on record?
The IC50 was over 2000 nM.

CCCCCCCCCCc1cccc2nc(NCCCN)oc12 [Compound 13v, N^1-decylbenzo[d]oxazol-2-yl)propane-1,3-diamine hydrochloride] was tested. Which IC50 did it give?
The IC50 was over 2000 nM.

How did the IC50 turn out when CCCCCCCCCCc1ccc(NC(=O)C[C@H]2CCNC2)cc1 [Compound 2j, (R)-N-decylphenyl)-2-(pyrrolidin-3-yl)acetamide Hydrochloride] was run?
Its IC50 is at most 2000 nM.

With CCCCCCCCCCc1ccc2nc(N(CCN)CCN)oc2c1 [Compound 13y, N1-aminoethyl)-N1-(6-decylbenzo[d]oxazol-2-yl)ethane-1,2-diamine dihydrochloride] as the molecule, how does the IC50 read?
The IC50 was at most 2000 nM.

With CCCCCCCCCCc1ccc2oc(N[C@@H]3CNC[C@@H]3F)nc2c1 [Compound 13l, 5-decyl-N-((3R,4S)-4-fluoropyrrolidin-3-yl)benzo[d]oxazol-2-amine hydrochloride] as the molecule, how does the IC50 read?
The IC50 was at most 2000 nM.

How did the IC50 turn out when CCCCCCCCCCc1ccc2oc(NCC3CCNCC3)nc2c1 [Compound 36, 5-decyl-N-(piperidin-4-ylmethyl)benzo[d]oxazol-2-amine] was run?
The IC50 was over 2000 nM.

Which IC50 does the source give for CCCCCCCCCCc1ccc2oc(CCCCCN)nc2c1 [Compound 8c, 5-Decylbenzo[d]oxazol-2-yl)pentan-1-amine Hyrdrochloride] here?
The IC50 was over 2000 nM.

How did the IC50 turn out when CCCCCCCCCCc1ccc(NC(=O)CCCCCN)cc1 [Compound 2f, 6-amino-N-(4-decylphenyl)hexanamide Hydrochloride] was run?
The IC50 was at most 2000 nM.

CCCCCCCCCCc1ccc(NC(=O)NCCCN)cc1 [Compound 20b, 1-Aminopropyl)-3-(4-decylphenyl)urea Hydrochloride] was tested. Which IC50 did it give?
The IC50 was at most 2000 nM.

For CCCCCCCCCCc1ccc(NC(=O)N2CCC(N)CC2)cc1 [Compound 20a, 4-amino-N-(4-decylphenyl)piperidine-1-carboxamide Hydrochloride], which IC50 is on record?
Its IC50 is at most 2000 nM.

How did the IC50 turn out when CCCCCCCCCCc1ccc(NC(=O)CCCNC(=N)N)cc1 [Compound 4c, N-decylphenyl)-4-guanidinobutanamide Hydrochloride] was run?
The IC50 was at most 2000 nM.

With CCCCCCCCCCc1ccc(NC(=O)CCCCN)cc1 [Compound 2e, 5-amino-N-(4-decylphenyl)pentanamide Hydrochloride] as the molecule, how does the IC50 read?
The IC50 was over 2000 nM.

CCCCCCCCCCc1ccc(NC(=O)CCCN)cc1 [Compound 2c, 4-amino-N-(4-decylphenyl)butanamide Hydrochloride] was tested. Which IC50 did it give?
The IC50 was at most 2000 nM.

For CCCCCCCCCCc1ccc(NC(=O)CCN)cc1 [Compound 2d, 3-amino-N-(4-decylphenyl)propanamide Hydrochloride], which IC50 is on record?
The IC50 was at most 2000 nM.

Which IC50 does the source give for CCCCCCCCCCc1ccc2nc(NCCN)oc2c1 [Compound 13q, N^1-decylbenzo[d]oxazol-2-yl)ethane-1,2-diamine hydrochloride] here?
Its IC50 is over 2000 nM.

With CCCCCCCCCCc1ccc(C(=O)NC2CCNCC2)cc1 [Compound 39, 4-decyl-N-(piperidin-4-yl)benzamide Hydrochloride] as the molecule, how does the IC50 read?
Its IC50 is at most 2000 nM.

CCCCCCCCCCc1ccc(NC(=O)CCCN)c(F)c1 [Compound 2l, amino-N-decyl-2-fluorophenyl)butanamide Hydrochloride] was tested. Which IC50 did it give?
The IC50 was over 2000 nM.

With CCCCCCCCCCc1ccc(NC(=O)N2CCNCC2)cc1 [Compound 35, N-decylphenyl)piperazine-1-carboxamide Hydrochloride] as the molecule, how does the IC50 read?
The IC50 was at most 2000 nM.

For CCCCCCCCCCc1ccc2oc(NCCCCCN)nc2c1 [Compound 13h, N^1-decylbenzo[d]oxazol-2-yl)pentane-1,5-diamine hydrochloride], which IC50 is on record?
The IC50 was over 2000 nM.

CCCCCCCCCCc1cccc2nc(NCCN)oc12 [Compound 13u, N^1-decylbenzo[d]oxazol-2-yl)ethane-1,2-diamine hydrochloride] was tested. Which IC50 did it give?
Its IC50 is over 2000 nM.

For CCCCCCCCCCc1ccc2oc(NC3CCNCC3)nc2c1 [Compound 13m, 5-decyl-N-(piperidin-4-yl)benzo[d]oxazol-2-amine Hydrochloride], which IC50 is on record?
The IC50 was at most 2000 nM.

With CCCCCCCCCCc1ccc(NC(=O)C2CCNCC2)cc1 [Compound 2o, N-decylphenyl)piperidine-4-carboxamide Hydrochloride] as the molecule, how does the IC50 read?
The IC50 was over 2000 nM.

For CCCCCCCCCCc1ccc(NC(=O)N[C@H]2CCNC2)cc1 [Compound 34, (S)(4-decylphenyl)-3-(pyrrolidin-3-yl)urea Hydrochloride], which IC50 is on record?
Its IC50 is at most 2000 nM.

CCCCCCCCCCc1ccc2nc(CCN)oc2c1 [Compound 8d, 2-Decylbenzo[d]oxazol-2-yl)ethan-1-amine Hydrochloride] was tested. Which IC50 did it give?
The IC50 was over 2000 nM.

CCCCCCCCCCc1ccc(NC(=O)O[C@H]2CCNC2)cc1 [Compound 23b, (S)-pyrrolidin-3-yl (4-decylphenyl)carbamate Hydrochloride] was tested. Which IC50 did it give?
Its IC50 is over 2000 nM.

How did the IC50 turn out when CCCCCCCCCCc1ccc2oc(NCCCN)nc2c1 [Compound 13f, hydrochloride] was run?
The IC50 was over 2000 nM.

Which IC50 does the source give for CCCCCCCCCCc1ccc2nc(NC3CCNCC3)oc2c1 [Compound 13ab, 6-decyl-N-(piperidin-4-yl)benzo[d]oxazol-2-amine Hydrochloride] here?
Its IC50 is at most 2000 nM.

CCCCCCCCCCc1ccc2oc(NC3CNC3)nc2c1 [Compound 13i, N-(azetidin-3-yl)-5-decylbenzo[d]oxazol-2-amine 2,2,2-trifluoroacetate] was tested. Which IC50 did it give?
The IC50 was over 2000 nM.

CCCCCCCCCCc1ccc2oc(CCN)nc2c1 [Compound 8a, 2-Decylbenzo[d]oxazol-2-yl)ethan-1-amine Hydrochloride] was tested. Which IC50 did it give?
Its IC50 is over 2000 nM.

For CCCCCCCCCCc1ccc2oc(NCCN)nc2c1 [Compound 13c, N^1-decylbenzo[d]oxazol-2-yl)ethane-1,2-diamine hydrochloride], which IC50 is on record?
Its IC50 is over 2000 nM.

For CCCCCCCCCCCc1ccc2oc(NCCN)nc2c1 [Compound 13d, N^1-undecylbenzo[d]oxazol-2-yl)ethane-1,2-diamine hydrochloride], which IC50 is on record?
Its IC50 is over 2000 nM.

Which IC50 does the source give for CCCCCCCCCOc1ccc(NC(=O)CCCN)cc1C(F)(F)F [Compound 2m, 4-amino-N-(4-(nonyloxy)-3-(trifluoromethyl)phenyl)butanamide hydrochloride] here?
The IC50 was over 2000 nM.

Which IC50 does the source give for CCCCCCCCCCc1cccc2oc(NCCCN)nc12 [Compound 13x, N^1-decylbenzo[d]oxazol-2-yl)propane-1,3-diamine hydrochloride] here?
Its IC50 is over 2000 nM.

CCCCCCCCCCc1cccc2oc(NCCN)nc12 [Compound 13w, N^1-decylbenzo[d]oxazol-2-yl)ethane-1,2-diamine hydrochloride] was tested. Which IC50 did it give?
The IC50 was over 2000 nM.

How did the IC50 turn out when CCCCCCCCCCc1ccc(NC(=O)OCCN)cc1 [Compound 23a, 2-Aminoethyl (4-decylphenyl)carbamate Hydrochloride] was run?
The IC50 was over 2000 nM.

CCCCCCCCCCc1ccc2nc(NCCCN)oc2c1 [Compound 13r, N^1-decylbenzo[d]oxazol-2-yl)propane-1,3-diamine hydrochloride] was tested. Which IC50 did it give?
The IC50 was over 2000 nM.

With CCCCCCCCCCc1ccc(C(=O)NCCN)cc1 [Compound 26e, N-aminoethyl)-4-decylbenzamide Hydrochloride] as the molecule, how does the IC50 read?
The IC50 was over 2000 nM.

Which IC50 does the source give for CCCCCCCCCCc1ccc2oc(N3CC[C@H](N)C3)nc2c1 [Compound 13n, (S)(5-decylbenzo[d]oxazol-2-yl)pyrrolidin-3-amine Hydrochloride] here?
The IC50 was over 2000 nM.

For CCCCCCCCCCc1ccc2nc(NCCN)sc2c1 [Compound 17a, N^1-decylbenzo[d]thiazol-2-yl)ethane-1,2-diamine hydrochloride], which IC50 is on record?
The IC50 was over 2000 nM.
